Data reported in article PMC8371902, “Phase 1 study of M2698, a p70S6K/AKT dual inhibitor, in patients with advanced cancer” (Journal of Hematology & Oncology, 2021).

Tests used:
[1] = tested on: advanced metastatic cancer; test: Antitumor activity: tumor response (RECIST 1.1) and progression-free survival; assay type: in vivo, human
Description: Tumor response was assessed using RECIST 1.1. As for drugs with cytostatic antitumor activity, disease control rate was defined as the sum of stable disease (SD) and objective response rates; SD was considered clinically beneficial. Progression-free survival (PFS) was measured from treatment initiation until disease progression or death and was estimated using the Kaplan–Meier method.

[2] = set-up: method as in PMID 27186432; details: preclinical studies ref 21; cited from earlier work
[3] = All patients, M2698 monotherapy 15 mg, N=3
[4] = All patients, M2698 monotherapy 30 mg, N=3
[5] = All patients, M2698 monotherapy 60 mg, N=6
[6] = All patients, M2698 monotherapy 75 mg, N=4
[7] = All patients, M2698 monotherapy 110 mg, N=4
[8] = All patients, M2698 monotherapy 160 mg, N=6
[9] = All patients, M2698 monotherapy 200 mg, N=3
[10] = All patients, M2698 monotherapy 240 mg, N=17
[11] = All patients, M2698 monotherapy 320 mg, N=12
[12] = All patients, M2698 monotherapy 380 mg, N=4
[13] = All patients, M2698 monotherapy, Total of all dose levels, N=62
[14] = PAM+ patients with confounding markers, M2698 monotherapy 15 mg, N=1
[15] = PAM+ patients with confounding markers, M2698 monotherapy 60 mg, N=2
[16] = PAM+ patients with confounding markers, M2698 monotherapy 75 mg, N=1
[17] = PAM+ patients with confounding markers, M2698 monotherapy 110 mg, N=1
[18] = PAM+ patients with confounding markers, M2698 monotherapy 160 mg, N=2
[19] = PAM+ patients with confounding markers, M2698 monotherapy, Total of all dose levels, N=7
[20] = PAM+ patients without confounding markers, M2698 monotherapy 15 mg, N=2
[21] = PAM+ patients without confounding markers, M2698 monotherapy 30 mg, N=2
[22] = PAM+ patients without confounding markers, M2698 monotherapy 60 mg, N=2
[23] = PAM+ patients without confounding markers, M2698 monotherapy 75 mg, N=1
[24] = PAM+ patients without confounding markers, M2698 monotherapy 110 mg, N=2
[25] = PAM+ patients without confounding markers, M2698 monotherapy 160 mg, N=4
[26] = PAM+ patients without confounding markers, M2698 monotherapy 200 mg, N=3
[27] = PAM+ patients without confounding markers, M2698 monotherapy 240 mg, N=16
[28] = PAM+ patients without confounding markers, M2698 monotherapy 320 mg, N=11
[29] = PAM+ patients without confounding markers, M2698 monotherapy 380 mg, N=4
[30] = PAM+ patients without confounding markers, M2698 monotherapy, Total of all dose levels, N=47
[31] = PAM+ patients, M2698 monotherapy 15 mg, N=3
[32] = PAM+ patients, M2698 monotherapy 30 mg, N=2
[33] = PAM+ patients, M2698 monotherapy 60 mg, N=4
[34] = PAM+ patients, M2698 monotherapy 75 mg, N=2
[35] = PAM+ patients, M2698 monotherapy 110 mg, N=3
[36] = PAM+ patients, M2698 monotherapy 160 mg, N=6
[37] = PAM+ patients, M2698 monotherapy 200 mg, N=3
[38] = PAM+ patients, M2698 monotherapy 240 mg, N=16
[39] = PAM+ patients, M2698 monotherapy 320 mg, N=11
[40] = PAM+ patients, M2698 monotherapy 380 mg, N=4
[41] = PAM+ patients, M2698 monotherapy, Total of all dose levels, N=54
[42] = monotherapy, PAM+ with confounding alterations, 1/7

## NC(=O)c1cccc2c(N[C@H](CN3CCC3)c3ccc(Cl)c(C(F)(F)F)c3)ncnc12 [M2698]
[1]; 54 PAM+ patients, monotherapy
  Patients with stable disease: 40.7%
[1]; [3]
  Median PFS: 4.1 months
  Response, NE: 0 (0.0) n (%)
  Response, PD: 1 (33.3) n (%)
  Response, SD at wk 6: 2 (66.7) n (%)
[1]; [4]
  Median PFS: 4.1 months
  Response, NE: 0 (0.0) n (%)
  Response, PD: 0 (0.0) n (%)
  Response, SD at wk 6: 3 (100) n (%)
[1]; [5]
  Median PFS: 1.4 months
  Response, NE: 1 (16.7) n (%)
  Response, PD: 4 (66.7) n (%)
  Response, SD at wk 6: 1 (16.7) n (%)
[1]; [6]
  Median PFS: 1.4 months
  Response, NE: 0 (0.0) n (%)
  Response, PD: 3 (75.0) n (%)
  Response, SD at wk 6: 1 (25.0) n (%)
[1]; [7]
  Median PFS: 1.3 months
  Response, NE: 1 (25.0) n (%)
  Response, PD: 2 (50.0) n (%)
  Response, SD at wk 6: 1 (25.0) n (%)
[1]; [8]
  Median PFS: 1.6 months
  Response, NE: 0 (0.0) n (%)
  Response, PD: 4 (66.7) n (%)
  Response, SD at wk 6: 2 (33.3) n (%)
[1]; [9]
  Median PFS: 4.1 months
  Response, NE: 0 (0.0) n (%)
  Response, PD: 1 (33.3) n (%)
  Response, SD at wk 6: 2 (66.7) n (%)
[1]; [10]
  Median PFS: 2.0 months
  Response, NE: 3 (17.6) n (%)
  Response, PD: 8 (47.1) n (%)
  Response, SD at wk 6: 6 (35.3) n (%)
[1]; [11]
  Median PFS: 2.8 months
  Response, NE: 2 (16.7) n (%)
  Response, PD: 5 (41.7) n (%)
  Response, SD at wk 6: 5 (41.7) n (%)
[1]; [12]
  Median PFS: 6.2 months
  Response, NE: 2 (50.0) n (%)
  Response, PD: 0 (0.0) n (%)
  Response, SD at wk 6: 2 (50.0) n (%)
[1]; [13]
  Median PFS: 2.3 months
  Response, NE: 9 (14.5) n (%)
  Response, PD: 28 (45.2) n (%)
  Response, SD at wk 6: 25 (40.3) n (%)
[1]; [14]
  Response, NE: 0 (0.0) n (%)
  Response, PD: 0 (0.0) n (%)
[1]; [15]
  Median PFS: 1.4 months
  Response, NE: 1 (50.0) n (%)
  Response, PD: 1 (50.0) n (%)
[1]; [16]
  Median PFS: 1.4 months
  Response, NE: 0 (0.0) n (%)
  Response, PD: 1 (100) n (%)
[1]; [17]
  Median PFS: 1.3 months
  Response, NE: 0 (0.0) n (%)
  Response, PD: 1 (100) n (%)
[1]; [18]
  Median PFS: 1.4 months
  Response, NE: 0 (0.0) n (%)
  Response, PD: 2(100.0) n (%)
[1]; [19]
  Median PFS: 1.4 months
  Response, NE: 1 (14.3) n (%)
  Response, PD: 5 (71.4) n (%)
[1]; [20]
  Median PFS: 4.1 months
  Response, NE: 0 (0.0) n (%)
  Response, PD: 1 (50.0) n (%)
  Response, SD at wk 6: 1 (50.0) n (%)
[1]; [21]
  Median PFS: 10.3 months
  Response, NE: 0 (0.0) n (%)
  Response, PD: 0 (0.0) n (%)
  Response, SD at wk 6: 2 (100.0) n (%)
[1]; [22]
  Median PFS: 1.4 months
  Response, NE: 0 (0.0) n (%)
  Response, PD: 2(100.0) n (%)
  Response, SD at wk 6: 0 (0.0) n (%)
[1]; [23]
  Median PFS: 2.8 months
  Response, NE: 0 (0.0) n (%)
  Response, PD: 0 (0.0) n (%)
  Response, SD at wk 6: 1(100.0) n (%)
[1]; [24]
  Median PFS: 15.1 months
  Response, NE: 1 (50.0) n (%)
  Response, PD: 0 (0.0) n (%)
  Response, SD at wk 6: 1 (50.0) n (%)
[1]; [25]
  Response, NE: 0 (0.0) n (%)
  Response, PD: 2 (50.0) n (%)
  Response, SD at wk 6: 2 (50.0) n (%)
[1]; [26]
  Median PFS: 4.1 months
  Response, NE: 0 (0.0) n (%)
  Response, PD: 1 (33.3) n (%)
  Response, SD at wk 6: 2 (66.7) n (%)
[1]; [27]
  Median PFS: 1.9 months
  Response, NE: 3 (18.8) n (%)
  Response, PD: 8 (50.0) n (%)
  Response, SD at wk 6: 5 (31.3) n (%)
[1]; [28]
  Median PFS: 2.8 months
  Response, NE: 1 (9.1) n (%)
  Response, PD: 5 (45.5) n (%)
  Response, SD at wk 6: 5 (45.5) n (%)
[1]; [29]
  Median PFS: 6.2 months
  Response, NE: 2 (50.0) n (%)
  Response, PD: 0 (0.0) n (%)
  Response, SD at wk 6: 2 (50.0) n (%)
[1]; [30]
  Median PFS: 2.8 months
  Response, NE: 7 (14.9) n (%)
  Response, PD: 19 (40.4) n (%)
  Response, SD at wk 6: 21 (44.7) n (%)
[1]; PAM+ patients, monotherapy
  Clinical benefit rate: 40.7%
[1]; [31]
  Median PFS: 4.1 months
  Response, NE: 0 (0.0) n (%)
  Response, PD: 1 (33.3) n (%)
  Response, SD at wk 6: 2 (66.7) n (%)
[1]; [32]
  Median PFS: 10.3 months
  Response, NE: 0 (0.0) n (%)
  Response, PD: 0 (0.0) n (%)
  Response, SD at wk 6: 2 (100) n (%)
[1]; [33]
  Median PFS: 1.4 months
  Response, NE: 1 (25.0) n (%)
  Response, PD: 3 (75.0) n (%)
  Response, SD at wk 6: 0 (0.0) n (%)
[1]; [34]
  Median PFS: 2.1 months
  Response, NE: 0 (0.0) n (%)
  Response, PD: 1 (50.0) n (%)
  Response, SD at wk 6: 1 (50.0) n (%)
[1]; [35]
  Median PFS: 8.2 months
  Response, NE: 1 (33.3) 1 (33.3) 1 (33.3) n (%)
  Response, PD: 1 (33.3) 1 (33.3) 1 (33.3) n (%)
  Response, SD at wk 6: 1 (33.3) 1 (33.3) 1 (33.3) n (%)
[1]; [36]
  Median PFS: 1.6 months
  Response, NE: 0 (0.0) n (%)
  Response, PD: 4 (66.7) n (%)
  Response, SD at wk 6: 2 (33.3) n (%)
[1]; [37]
  Median PFS: 4.1 months
  Response, NE: 0 (0.0) n (%)
  Response, PD: 1 (33.3) n (%)
  Response, SD at wk 6: 2 (66.7) n (%)
[1]; [38]
  Median PFS: 1.9 months
  Response, NE: 3 (18.8) n (%)
  Response, PD: 8 (50.0) n (%)
  Response, SD at wk 6: 5 (31.3) n (%)
[1]; [39]
  Median PFS: 2.8 months
  Response, NE: 1 (9.1) n (%)
  Response, PD: 5 (45.5) n (%)
  Response, SD at wk 6: 5 (45.5) n (%)
[1]; [40]
  Median PFS: 6.2 months
  Response, NE: 2 (50.0) n (%)
  Response, PD: 0 (0.0) n (%)
  Response, SD at wk 6: 2 (50.0) n (%)
[1]; [41]
  Median PFS: 2.4 months
  Response, NE: 8 (14.8) n (%)
  Response, PD: 24 (44.4) n (%)
  Response, SD at wk 6: 22 (40.7) n (%)
[1]; in vivo
  Overall clinical benefit rate at 12 weeks: 27.4%
[1]; monotherapy cohort
  Patients with stable disease at 12 weeks: 27.4%
[1]; monotherapy cohort overall
  Patients with stable disease: 40.3%
[1]; monotherapy cohort, RECIST 1.1
  Objective response: no objective responses were noted
[1]; monotherapy overall
  Median PFS: 2.3 months
[1]; monotherapy, PAM+ patients
  Median PFS: 2.4 months
[1]; [42]
  Stable disease at 6 weeks: 14.3%
  Stable disease at 12 weeks: 14.3%
[1]; monotherapy, PAM+ without confounding alterations, 14/47
  Stable disease at 12 weeks: 29.8%
[1]; monotherapy, PAM+ without confounding alterations, 21/47
  Stable disease at 6 weeks: 44.7%
[1]; monotherapy, all PAM+ without confounding alterations
  PFS of the five patients with PFS ≥ 6 months: 7.1–16.4 months
[1]; monotherapy, n = 7
  Median PFS, PAM+ patients with confounding alterations (KRAS, EGFR, AKT2): 1.4 months
[1]; monotherapy, n = 47
  Median PFS, PAM+ patients without confounding alterations: 2.8 months
[2]
  Blood–brain barrier crossing: capacity to cross the blood–brain barrier
